In article PMC11222147, “Host defence peptide plectasin targets bacterial cell wall precursor lipid II by a calcium-sensitive supramolecular mechanism” (Nature Microbiology, 2024):
In brackets after ≈: the same amount, converted by molar mass. Where a SMILES comes first, the peptide text is derived from it. Bridges are numbered along the chain shown (N, C = ends). Where no end group is shown, it is not given here.

System: S. simulans 22
Assay: MIC assays under standard conditions
Assay type: cell-based, Staphylococcus simulans
Description: Plectasin and analogues were serially diluted in cation-adjusted Mueller–Hinton broth (MHB) in round-bottom polypropylene 96-well plates (50 µl per well). Selected bacterial strains were grown from glycerol stocks on blood agar plates. Individual colonies were inoculated in TSB and incubated at 37 °C while shaking until OD600 reached 0.5. Bacterial suspensions were then diluted 100 times in cation-adjusted MHB and distributed (50 μl per well) over the microplate containing the diluted plectasin solutions. Plates were covered by a gas-permeable adhesive membrane and incubated at 37 °C while shaking. MICs were determined by visual inspection after 16–20 h (Staphylococcus) or 20–24 h (Streptococcus). For Streptococcus strains, the broth was additionally supplemented with 5% lysed horse blood, and the microplates were incubated under 5% CO2 atmosphere. In the assays, we used the following strains: S. simulans, S. pneumoniae serotype 8, S. pneumoniae ATCC6305 and Streptococcus pyogenes M3.

In the case of `CSCC[C@@H]1NC(=O)[C@H](CC(=O)O)NC(=O)[C@H](CC(=O)O)NC(=O)[C@H](CCC(=O)O)NC(=O)[C@H](CC(=O)O)NC(=O)[C@H](Cc2c[nH]c3ccccc23)NC(=O)[C@@H]2CCCN2C(=O)CNC(=O)[C@H](CC(N)=O)NC(=O)[C@@H](NC(=O)CNC(=O)[C@H](Cc2ccccc2)NC(=O)CN)CSSC[C@@H]2NC(=O)[C@H](Cc3ccc(O)cc3)NC(=O)CNC(=O)CNC(=O)[C@H](CCCCN)NC(=O)[C@H](Cc3ccc(O)cc3)NC(=O)CNC(=O)[C@H](CCCCN)NC(=O)[C@H](Cc3ccccc3)NC(=O)[C@H](CO)NC(=O)[C@H](CCCCN)NC(=O)[C@@H]3CSSC[C@@H](C(=O)N[C@@H](Cc4ccc(O)cc4)C(=O)O)NC(=O)[C@H](CCCCN)NC(=O)[C@H](CSSC[C@H](NC(=O)[C@H](CCC(N)=O)NC1=O)C(=O)N[C@@H](Cc1c[nH]cn1)C(=O)N[C@@H](CC(N)=O)C(=O)N[C@@H](Cc1c[nH]cn1)C(=O)N3)NC(=O)[C@H](C(C)C)NC(=O)[C@H](Cc1ccccc1)NC(=O)CNC(=O)CNC(=O)[C@H](CCCCN)NC(=O)[C@H](C)NC2=O` [I22F] (H-GFGCNGPWDEDDMQCHNHCKSFKGYKGGYCAKGGFVCKCY-OH; disulfide 4-30, 15-37, 19-39 (inferred); N-terminus and C-terminus assumed), the “Minimum inhibitory concentration, S. simulans” value (Supplementary Table 1, cation-adjusted MHB, 37 °C, 16–20 h) is reported as > 50 µg/mL.
For “nisin (ITSISLCTPGCKTGALMGCNMKTATCHCSIHVSK; not fully specified (some residues, bridges); also: lantibiotic nisin-A (thioether rings, dehydro residues) not placed; UniProt P13068 24-57, looked up) [reference compound]”, the “MIC towards S. simulans as quoted in Extended Data Fig. 8” value (legend of the permeabilization assays) was 0.075 µM.
`CC[C@H](C)[C@@H]1NC(=O)[C@H](CO)NC(=O)[C@H](CCCCN)NC(=O)[C@@H]2CSSC[C@@H](C(=O)N[C@@H](Cc3ccc(O)cc3)C(=O)O)NC(=O)[C@H](CCCCN)NC(=O)[C@@H]3CSSC[C@H](NC(=O)[C@H](CCC(N)=O)NC(=O)[C@H](CCSC)NC(=O)[C@H](CC(=O)O)NC(=O)[C@H](CC(=O)O)NC(=O)[C@H](CCC(=O)O)NC(=O)[C@H](CC(=O)O)NC(=O)[C@H](Cc4c[nH]c5ccccc45)NC(=O)[C@@H]4CCCN4C(=O)CNC(=O)[C@H](CC(N)=O)NC(=O)[C@@H](NC(=O)CNC(=O)[C@H](Cc4ccccc4)NC(=O)CN)CSSC[C@H](NC(=O)[C@H](Cc4ccc(O)cc4)NC(=O)CNC(=O)CNC(=O)[C@H](CCCCN)NC(=O)[C@H](Cc4ccc(O)cc4)NC(=O)CNC(=O)[C@H](C)NC1=O)C(=O)N[C@@H](C)C(=O)N[C@@H](CCCCN)C(=O)NCC(=O)NCC(=O)N[C@@H](Cc1ccccc1)C(=O)N[C@@H](C(C)C)C(=O)N3)C(=O)N[C@@H](Cc1c[nH]cn1)C(=O)N[C@@H](CC(N)=O)C(=O)N[C@@H](Cc1c[nH]cn1)C(=O)N2` [K23A] (H-GFGCNGPWDEDDMQCHNHCKSIAGYKGGYCAKGGFVCKCY-OH; disulfide 4-30, 15-37, 19-39 (inferred); N-terminus and C-terminus assumed) was tested, and the “reduction in activity vs plectasin” value (from MIC of Table 1) was “fivefold to tenfold” and the MIC (standard conditions, cation-adjusted MHB, 37 °C, visual inspection after 16–20 h) was 6.25 µg/mL (≈ 1.44 µM).
